PMC6149971, “In Vivo and In Vitro Activities and ADME-Tox Profile of a Quinolizidine-Modified 4-Aminoquinoline: A Potent Anti-P. falciparum and Anti-P. vivax Blood-Stage Antimalarial” (Molecules : A Journal of Synthetic Chemistry and Natural …, 2017)
“And” between values parts separate entries of the source, which are not always exact repeats. Equal entries are not always repeated.

Tests used:
[1] = Microsome stability and metabolism studies, human; assay type: in vitro ADME; parameters: key: +: Metabolic Products Detected In Vitro and In Vivo; ND: Not detectable; settings: (−)-AM1 1 μM, at 30 min
Description: Samples from the metabolic stability and metabolism studies were analyzed under the following conditions: UPLC interfaced with a Premiere XE triple Quadrupole Waters for stability studies, and Bruker Daltonics Ion Trap HCT Ultra for metabolic studies. A gradient from 2% to 100% (Water, MeOH, 5 mM Ammonium Acetate) over 2 min (stability) or 12 min (metabolism) in a C18 BEH (dimensions 1 by 50 mm for stability and 2.1 by 100 mm for metabolism, 1.7 µm column, 45 °C temperature, flow rate 0.5 mL/min) was used. […]
For stability and metabolism studies, test compounds were dissolved in DMSO, diluted at the final concentration of 1 µM, and pre-incubated in duplicate for 10 min at 37 °C in potassium phosphate buffer, pH 7.4, 3 mM MgCl2, with rat, mouse, and human hepatic microsomes (Xenotech Europe, Pfungstadt, Germany) at the final concentration of 0.5 mg/mL. […] Samples were then centrifuged and the supernatants analysed and quantified by LC-MS/MS. […]
(§1) The percentage of the area of test compounds remaining after 30 min incubation was calculated in respect to the area of compounds at time = 0 min. […] Samples were re-analyzed by acquiring the daughter scan of the potential metabolites found during the full scan acquisition.

[2] = Microsome stability and metabolism studies, rat; assay type: in vitro ADME; parameters: key: +: Metabolic Products Detected In Vitro and In Vivo; ND: Not detectable; settings: (−)-AM1 1 μM, at 30 min
Description: (§2) Samples from the metabolic stability and metabolism studies were analyzed under the following conditions: UPLC interfaced with a Premiere XE triple Quadrupole Waters for stability studies, and Bruker Daltonics Ion Trap HCT Ultra for metabolic studies. A gradient from 2% to 100% (Water, MeOH, 5 mM Ammonium Acetate) over 2 min (stability) or 12 min (metabolism) in a C18 BEH (dimensions 1 by 50 mm for stability and 2.1 by 100 mm for metabolism, 1.7 µm column, 45 °C temperature, flow rate 0.5 mL/min) was used. For stability studies, the detection was performed in MRM (ESI positive, Q1/Q3 330.16/152.00, Cone Voltage 45 V; Extractor 5 V; Capillary 3.4 kV), while for metabolism studies, analysis was performed in Auto MS/MS mode (ESI positive; Capillary 109 V; Dry Temp 350 °C; Nebulizer 30 psi; Dry gas 10 L/min; HV capillary 500 V; Mass Accu time 500 µs; Mass range MS scan 100–600 amu, MS/MS 50–450 amu).
(§3) For stability and metabolism studies, test compounds were dissolved in DMSO, diluted at the final concentration of 1 µM, and pre-incubated in duplicate for 10 min at 37 °C in potassium phosphate buffer, pH 7.4, 3 mM MgCl2, with rat, mouse, and human hepatic microsomes (Xenotech Europe, Pfungstadt, Germany) at the final concentration of 0.5 mg/mL. The reaction was then started by adding the cofactor mixture of NADP, Glc6P, and G6P-DH, in the presence of UDPGA 1 mM in human microsomes to promote glucuronide formation. Acetonitrile (with verapamil as internal standard) was added to the samples at the times time 0 and 30 min to stop the reaction. Samples were then centrifuged and the supernatants analysed and quantified by LC-MS/MS. Reference compounds of known metabolic stability, 7-ethoxycoumarin (7-EC) and propranolol, were used as controls.
as §1

[3] = Microsome stability and metabolism studies, mouse; assay type: in vitro ADME; parameters: key: +: Metabolic Products Detected In Vitro and In Vivo; ND: Not detectable; settings: (−)-AM1 1 μM, at 30 min
Description: as §2, §3, §1

[4] = Pharmacokinetics in CD-1 mice after oral administration; assay type: in vivo, mouse
Description: Samples from the pharmacokinetic studies were analyzed under the following conditions: UPLC interfaced with a Premiere XE triple Quadrupole, Waters. A gradient from 2 to 100% (Water, MeOH, 5 mM Ammonium Acetate) over 1.3 min was used in Acquity HSS T3 (dimensions 2.1 by 50 mm, 1.8 µm column, 40 °C temperature, flow rate 0.5 mL/min). Detection was performed in MRM (ESI positive, Q1/Q3 330.16/152.00, Cone Voltage 45 V; Extractor 5 V; Capillary 3.4 kV). The limit of detection was 1 ng/mL. Pharmacokinetic parameters were determined by Non-Compartmental Analysis, using the linear trapezoidal rule and uniform weight.
Pharmacokinetic data were collected in mice by testing the racemate and the enantiomers at the same single dose, and vehicle-utilized for in vivo studies (see composition in paragraph 4.4). Briefly, male CD-1 mice (Charles River Laboratories) weighing 18–22 g received single dose (10 mg/kg) oral administrations of the AM1 racemate and single enantiomers, each dissolved in SSV. For each experiment, twenty-four mice/dose and three mice/time-point were used. Blood samples were collected at eight selected time-points (15, 30 and 60 min; 2, 4, 6, 8 and 24 h) under ethyl ether anaesthesia. The heparinized tubes containing blood samples were immediately placed on ice and centrifuged, and the supernatant collected and frozen at −80 °C prior to analysis. Pharmacokinetic plasma samples (spiked with internal standard) were filtered (Sirocco filter plate, Waters) under vacuum, and 5 µL analysed by LC-MS/MS.

P. vivax field isolates = experiment: In vitro assay against P. vivax field isolates; assay type: cell-based
Excerpt: Ten P. vivax isolates were collected from June to July 2010 from malaria patients attending the Shoklo Malaria Research Unit (SMRU) clinics, Mae Sot region of the Tak Province in north-western Thailand under the ethical guidelines in the approved protocol OXTREC 027-05 (Centre for Clinical Vaccinology and Tropical Medicine, University of Oxford, Oxford, UK). These samples were collected from patients with no prior antimalarial therapy and with microscopically confirmed P. vivax. After written consent, blood samples were collected by venepuncture in 5 mL volume lithium heparinized tubes, which were then transported to the laboratory at SMRU within 5 h of collection. The ten isolates were chosen for testing because the majority (>80%) of the parasites were at the mid trophozoite stage (around 20 h post invasion) and no schizonts were detected.

P. falciparum D10 (CQ-S) = test system: P. falciparum D10 (CQ-S); parameters: method as in PMID 22901673; settings: 72 h incubation, pLDH method, mean of 3 experiments; data already published; cited from earlier work
P. falciparum W-2 (CQ-R) = test system: P. falciparum W-2 (CQ-R); parameters: method as in PMID 22901673; settings: 72 h incubation, pLDH method, mean of 3 experiments; data already published; cited from earlier work
hERG = target: T1, hERG (Homo sapiens, UniProt Q12809); experiment: hERG [3H]-astemizole radioligand binding assay; settings: HEK293 cell membranes, preliminary experiments
T1 construct: expressed in transfected cells
Description: [^3H]-astemizole (PerkinElmer ITALIA Spa, Milan, Italy) radioligand binding assays were performed in HEK293 cells membranes stably transfected with the hERG (U04270); non-specific binding was evaluated in the presence of an excess of 10 µM cold astemizole. Experiments were performed at 22 °C for 60 min in triplicate and compounds tested in a range from 0.03 µM to 30 µM. Two separate experiments were performed and data analyzed with non-linear fitting using a four-parameter logistic.

P. berghei ANKA = experiment: Standard four-day suppressive test, P. berghei; assay type: in vivo; settings: CD1 mice, oral, once a day for four days, parasitaemia on day 4
Description: Groups of five CD1 mice were inoculated i.v. with 4 × 10^6 infected erythrocytes/mice. The compound, dissolved in standard suspending formula (SSV) (0.5% sodium carboxymethylcellulose, 0.5% benzyl alcohol, 0.4% Tween 80, 0.9% NaCl), was administered orally, once a day for a period of four days, starting two hours post-infection. […] Parasitaemia was determined by microscopic examination of Giemsa-stained blood films taken on day four, processed using MICROSOFT® EXCEL spreadsheets (Microsoft Corp., Redmond, WA, USA), and expressed as percentages of inhibition from the arithmetic mean parasitaemias of each group in relation to the untreated group. ED50 and ED90 values were calculated by GraphPad Prism 6 (GraphPad Software Inc, La Jolla, CA, USA).

CYP2C9 = CYP2C9 (Homo sapiens, UniProt P11712); experiment: in vitro
CYP1A2 = target: T2, CYP1A2 (Homo sapiens, UniProt P05177); experiment: in vitro
T2 sequence (P05177 1-516): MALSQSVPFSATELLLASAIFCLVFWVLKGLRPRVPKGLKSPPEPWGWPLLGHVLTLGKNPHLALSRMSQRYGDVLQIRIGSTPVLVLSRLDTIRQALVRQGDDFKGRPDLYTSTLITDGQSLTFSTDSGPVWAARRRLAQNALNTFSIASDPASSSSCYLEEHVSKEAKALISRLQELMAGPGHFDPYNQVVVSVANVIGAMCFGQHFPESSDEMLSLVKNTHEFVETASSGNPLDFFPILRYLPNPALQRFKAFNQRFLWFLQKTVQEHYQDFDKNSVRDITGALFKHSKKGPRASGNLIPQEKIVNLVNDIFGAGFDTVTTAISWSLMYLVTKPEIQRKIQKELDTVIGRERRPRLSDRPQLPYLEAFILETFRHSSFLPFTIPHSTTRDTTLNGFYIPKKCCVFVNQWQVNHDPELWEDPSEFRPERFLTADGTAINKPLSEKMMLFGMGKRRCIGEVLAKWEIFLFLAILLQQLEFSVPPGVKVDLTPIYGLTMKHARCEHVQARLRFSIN

CYP2C19 = CYP2C19 (Homo sapiens, UniProt P33261); experiment: in vitro
CYP3A4 = CYP3A4 (Homo sapiens, UniProt P08684); experiment: in vitro
CYP2D6 = CYP2D6 (Homo sapiens, UniProt P10635); experiment: in vitro
[5] = CD-1 mice, 10 mg/kg oral, single dose in SSV, plasma
[6] = male, CD-1, mouse, in vivo, po, 10 mg/kg

Chain of CYP2D6 (P10635 whole entry): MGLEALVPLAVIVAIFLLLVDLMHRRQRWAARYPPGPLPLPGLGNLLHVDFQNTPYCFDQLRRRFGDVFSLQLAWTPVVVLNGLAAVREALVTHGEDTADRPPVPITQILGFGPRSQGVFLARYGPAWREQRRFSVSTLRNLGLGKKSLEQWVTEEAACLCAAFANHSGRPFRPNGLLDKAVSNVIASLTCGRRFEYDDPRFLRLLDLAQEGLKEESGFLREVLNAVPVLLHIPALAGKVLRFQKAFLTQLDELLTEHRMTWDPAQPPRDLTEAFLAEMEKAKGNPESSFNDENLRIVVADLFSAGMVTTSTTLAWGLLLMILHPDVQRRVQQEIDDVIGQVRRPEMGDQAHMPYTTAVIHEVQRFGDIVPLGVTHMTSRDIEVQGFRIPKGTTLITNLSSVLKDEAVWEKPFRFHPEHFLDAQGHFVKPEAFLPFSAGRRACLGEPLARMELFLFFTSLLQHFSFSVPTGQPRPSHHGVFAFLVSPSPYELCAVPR
Chain of CYP2C19 (P33261 whole entry): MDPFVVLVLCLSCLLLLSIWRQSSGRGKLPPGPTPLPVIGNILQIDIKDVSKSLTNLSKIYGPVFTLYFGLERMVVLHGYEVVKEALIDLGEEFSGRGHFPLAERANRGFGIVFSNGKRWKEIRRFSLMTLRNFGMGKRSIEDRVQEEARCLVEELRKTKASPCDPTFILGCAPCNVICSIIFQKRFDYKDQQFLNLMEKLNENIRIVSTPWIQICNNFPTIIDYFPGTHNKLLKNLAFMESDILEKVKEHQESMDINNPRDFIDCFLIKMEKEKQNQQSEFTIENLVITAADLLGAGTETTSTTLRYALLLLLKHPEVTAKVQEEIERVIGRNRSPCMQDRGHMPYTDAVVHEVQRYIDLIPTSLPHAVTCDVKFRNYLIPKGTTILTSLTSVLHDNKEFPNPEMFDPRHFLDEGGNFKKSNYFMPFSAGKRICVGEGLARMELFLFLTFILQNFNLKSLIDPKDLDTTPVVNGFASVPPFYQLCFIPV
T1 sequence (Q12809 whole entry): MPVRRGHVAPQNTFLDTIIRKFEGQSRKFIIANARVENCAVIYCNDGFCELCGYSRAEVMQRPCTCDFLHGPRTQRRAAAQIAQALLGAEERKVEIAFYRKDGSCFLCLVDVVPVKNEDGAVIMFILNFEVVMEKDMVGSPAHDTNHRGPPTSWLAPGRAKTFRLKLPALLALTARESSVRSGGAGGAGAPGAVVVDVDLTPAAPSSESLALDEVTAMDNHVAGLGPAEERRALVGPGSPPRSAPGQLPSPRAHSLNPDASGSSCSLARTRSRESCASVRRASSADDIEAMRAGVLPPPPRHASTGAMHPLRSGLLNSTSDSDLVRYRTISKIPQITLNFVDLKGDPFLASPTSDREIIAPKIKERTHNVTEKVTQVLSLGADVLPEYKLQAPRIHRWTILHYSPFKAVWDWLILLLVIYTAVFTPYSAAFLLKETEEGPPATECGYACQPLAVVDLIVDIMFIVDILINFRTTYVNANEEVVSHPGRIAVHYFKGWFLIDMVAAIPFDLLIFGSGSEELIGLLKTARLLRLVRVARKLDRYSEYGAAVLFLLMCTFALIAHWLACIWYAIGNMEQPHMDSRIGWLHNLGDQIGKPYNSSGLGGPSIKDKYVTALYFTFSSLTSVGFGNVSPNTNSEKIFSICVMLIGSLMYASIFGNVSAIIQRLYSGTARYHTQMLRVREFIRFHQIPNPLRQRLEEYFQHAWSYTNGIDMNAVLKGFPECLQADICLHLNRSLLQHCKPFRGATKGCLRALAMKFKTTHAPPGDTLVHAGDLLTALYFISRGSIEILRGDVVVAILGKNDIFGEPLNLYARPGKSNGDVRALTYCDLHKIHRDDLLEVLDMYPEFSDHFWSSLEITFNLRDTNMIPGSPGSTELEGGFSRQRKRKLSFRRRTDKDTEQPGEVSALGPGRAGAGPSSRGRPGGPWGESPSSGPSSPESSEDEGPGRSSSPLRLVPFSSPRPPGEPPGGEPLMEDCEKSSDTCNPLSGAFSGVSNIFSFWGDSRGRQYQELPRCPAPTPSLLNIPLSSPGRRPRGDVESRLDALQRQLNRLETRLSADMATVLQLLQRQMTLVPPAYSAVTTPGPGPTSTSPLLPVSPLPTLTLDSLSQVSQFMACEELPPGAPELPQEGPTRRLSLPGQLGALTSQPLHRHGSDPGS
Chain of CYP3A4 (P08684 whole entry): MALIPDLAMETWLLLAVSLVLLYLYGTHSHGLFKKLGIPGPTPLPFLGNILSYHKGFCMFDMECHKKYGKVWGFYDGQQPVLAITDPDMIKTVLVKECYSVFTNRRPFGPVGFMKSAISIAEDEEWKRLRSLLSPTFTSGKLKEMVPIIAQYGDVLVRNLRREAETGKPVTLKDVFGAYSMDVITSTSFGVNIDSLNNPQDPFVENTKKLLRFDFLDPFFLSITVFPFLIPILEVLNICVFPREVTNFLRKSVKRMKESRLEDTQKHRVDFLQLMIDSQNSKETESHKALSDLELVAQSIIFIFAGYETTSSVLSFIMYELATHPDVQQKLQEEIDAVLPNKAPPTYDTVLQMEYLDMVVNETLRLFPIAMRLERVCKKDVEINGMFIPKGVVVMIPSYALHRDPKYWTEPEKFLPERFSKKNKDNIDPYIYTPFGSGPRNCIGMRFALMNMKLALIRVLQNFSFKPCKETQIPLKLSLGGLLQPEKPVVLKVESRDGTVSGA
Chain of CYP2C9 (P11712 whole entry): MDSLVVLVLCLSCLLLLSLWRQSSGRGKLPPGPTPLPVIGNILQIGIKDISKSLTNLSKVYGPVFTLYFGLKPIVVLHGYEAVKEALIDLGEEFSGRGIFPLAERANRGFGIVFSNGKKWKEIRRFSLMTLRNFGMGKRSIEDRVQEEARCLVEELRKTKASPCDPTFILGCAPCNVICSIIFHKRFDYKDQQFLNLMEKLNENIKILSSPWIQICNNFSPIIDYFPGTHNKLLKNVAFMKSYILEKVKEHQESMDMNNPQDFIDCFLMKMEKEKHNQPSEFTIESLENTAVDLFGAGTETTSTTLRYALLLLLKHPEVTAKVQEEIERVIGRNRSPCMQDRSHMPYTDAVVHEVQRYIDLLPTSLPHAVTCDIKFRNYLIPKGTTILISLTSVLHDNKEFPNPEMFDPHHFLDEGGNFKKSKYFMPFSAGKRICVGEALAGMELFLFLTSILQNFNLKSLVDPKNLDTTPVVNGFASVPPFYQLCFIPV

O=C(Nc1ccnc2cc(Cl)ccc12)[C@@H]1CCCN2CCCC[C@H]12 [C00002]
Metabolic products detected, in vitro microsomes, human [1]: + | Metabolic products detected, in vitro microsomes, rat [2]: + | Metabolic products detected, in vitro microsomes, mouse [3]: +

Clc1ccc2c(NCC3CCCN4CCCCC34)ccnc2c1 (racemic) [(±)-AM1, 7-chloro-4-(N-lupinyl)aminoquinoline]
MRT last [4, 5]: 3.27 h | Tmax [4, 5]: 0.5 h | AUC last ([4]; CD-1 mice, 10 mg/kg oral, single dose in SSV, plasma, 10 mg/kg): 19.5 min·µM and 6421 min·ng/mL | IC50 (P. vivax field isolates; 10 field isolates from the Thai–Burmese border, mean, read-out: P. vivax IC50, field isolates): 29.7 nM | potency against P. vivax field isolates relative to CQ (P. vivax field isolates; 10 field isolates, times higher than CQ): about 3 times | IC50 (P. falciparum D10 (CQ-S)): 16.1 nM | IC50 (P. falciparum W-2 (CQ-R)): 35.4 nM | Ki (hERG): 500 to 800 nM | P. berghei ED50 (95% CI) (P. berghei ANKA): 2.77 (1.26–4.29) mg/kg | P. berghei ED90 (95% CI) (P. berghei ANKA): 12.58 (7.69–17.46) mg/kg

Clc1ccc2c(NC[C@H]3CCCN4CCCC[C@@H]34)ccnc2c1 [(+)-AM1, 7-chloro-N-(((1R,9aS)-octahydro-1H-quinolizin-1-yl)methyl)quinolin-4-amine]
AUC(0-t) [4, 6]: 0.382 µM·h and 126 ng·h/mL | Cmax [4, 6]: 108 nM and 35.5 ng/mL | MRT last [4, 6]: 2.7 h | Tmax [4, 6]: 2 h | inhibition at 3 µM (CYP2C9): 11.1 ± 0.5% | inhibition at 3 µM (CYP1A2): 8.3 ± 0.8% | inhibition at 3 µM (CYP2C19): 9 ± 1.1% | inhibition at 3 µM (CYP3A4): 14.3 ± 1.9% | IC50 (P. falciparum D10 (CQ-S)): 17.5 nM | IC50 (P. falciparum W-2 (CQ-R)): 35.8 nM | P. berghei ED90 (95% CI) (P. berghei ANKA): 2.03 (1.46–2.60) mg/kg | ED50 (P. berghei ANKA; Plasmodium berghei, 96 h, read-out: P. berghei ED50 (95% CI)): 1.6 mg/kg | inhibition at 3 µM (CYP2D6): 62.2 ± 1%
